# Laboratory results as given in patent US20230301933A1 (priority 2020, published 2023).
# Read-outs that look alike come from different tables or passages of the source.
# What was measured:
# [1] = insulin comprising 0.2 to 1.0 mg per dose phenol as preservative; cited from earlier work
# Critical Stage Covid-19 = test system: Critical Stage Covid-19
# Description: Treated with concentration phenol 0.01% in 60 ml, drip infusion 20 minutes, once daily.
# Day 6 lowered dose to 0.01% concentration in 30 ml. Stopped treatment after treatment day 9.
# [2] = Description: In an particularly attractive embodiment, the phenol is injected subcutaneously, i.e. in the soft tissue below the skin with a depth of up to 0.5-2.0 cm.
# In another attractive embodiment, the phenol is administered intravenously.
# MRSA Lung Infection = test system: MRSA Lung Infection
# Description: Person, 88 kg, dyspnoea, cough, chest pain and fever, under urine catheter. Has used different antibiotic before and after operation prostate cancer and by lung infection.
# Phenol reduce to 0.02% 15 ml. duration 10 minutes for 5 more days.
# Flu Pneumonia = conditions: human, in vivo
# Early Stage CoViD-19 = test system: Early Stage CoViD-19
# Text: Subject 2, suffering early stage CoViD-19. Former professional sportsman (soccer), doesn't smoke, no alcohol, weight 75 kg. Pre-treatment history. […] Came to GP for treatment.
# Treatment for four consecutive days of four subcutaneous injections as described for patient 1. First day of treatment is set as ‘Day 1’.
# Virus Induced Pneumonia = test system: Virus Induced Pneumonia
# Text: Subject 1 was a person, weight 85 kg, pre-condition asthma. […] Pre-treatment history:
# Self-treatment with Ventolin and paracetamol. […] Sixth day. […] Patient thinks that the problem is serious, and contacts GP.
# Treatment started for 9 consecutive days by four subcutaneous injections of a 0.06 w/w % phenol in physiological saline daily administered in: 1 and 2) the posterior margin of the sternocleidomastoid muscle on the level of the larynx knot at both left and right side of the body, each about 1 cm deep; 3) the middle of the upper socket of the sternum about 0.5 cm deep, and 4) the depression below the spinous process of the 7th cervical vertebra, about 0.5 cm deep. First day of treatment is set as ‘Day 1’
# [3] = at end of treatment (3 days normal body temperature), phenol 0.01% drip infusion once daily
# [4] = day1, phenol 0.02% (in 30 ml), drip 15 minutes
# [5] = day2, phenol 0.02% (in 30 ml), drip 15 minutes
# [6] = day3, phenol 0.02% (in 30 ml), drip 15 minutes
# [7] = day4, phenol 0.02% (in 30 ml), drip 15 minutes
# [8] = day5, phenol 0.02% (in 30 ml), drip 15 minutes
# [9] = day6, phenol 0.02% (in 15 ml), drip 10 minutes
# [10] = day7, phenol 0.02% (in 15 ml), drip 10 minutes
# [11] = day8, phenol 0.02% (in 15 ml), drip 10 minutes
# [12] = day9, phenol 0.02% (in 15 ml), drip 10 minutes
# [13] = Day 1 (first day of treatment), four s.c. injections 0.06 w/w % phenol daily
smiles,measurement,setting,value
Oc1ccccc1 [phenol],Accumulation of phenol in the body by daily use,[1],no significant accumulation
same,R/R,Critical Stage Covid-19; [3],20
same,SPO2,Critical Stage Covid-19; [3],97%
same,R/R,Critical Stage Covid-19; [4],41
same,SpO2,Critical Stage Covid-19; [4],91%
same,body temperature,Critical Stage Covid-19; [4],37.6 °C
same,R/R,Critical Stage Covid-19; [5],32
same,SpO2,Critical Stage Covid-19; [5],93%
same,body temperature,Critical Stage Covid-19; [5],38.6 °C
same,R/R,Critical Stage Covid-19; [6],27
same,SpO2,Critical Stage Covid-19; [6],94%
same,body temperature,Critical Stage Covid-19; [6],38.5 °C
same,R/R,Critical Stage Covid-19; [7],23
same,SpO2,Critical Stage Covid-19; [7],96%
same,body temperature,Critical Stage Covid-19; [7],38.0 °C
same,R/R,Critical Stage Covid-19; [8],22
same,SpO2,Critical Stage Covid-19; [8],96%
same,body temperature,Critical Stage Covid-19; [8],37.4 °C
same,day 6 evaluation: breathing,Critical Stage Covid-19; day 6,"day 6 evaluation patient breaths normally, still stress, coughing, feels good, day 6 started walking (with infusion)"
same,"temperature, R/R, SpO2",Critical Stage Covid-19; day 6,normal
same,R/R,Critical Stage Covid-19; [9],20
same,SpO2,Critical Stage Covid-19; [9],97%
same,body temperature,Critical Stage Covid-19; [9],37.0 °C
same,R/R,Critical Stage Covid-19; [10],20
same,SpO2,Critical Stage Covid-19; [10],97%
same,body temperature,Critical Stage Covid-19; [10],36.8 °C
same,R/R,Critical Stage Covid-19; [11],20
same,SpO2,Critical Stage Covid-19; [11],97%
same,body temperature,Critical Stage Covid-19; [11],36.9 °C
same,day 9 evaluation: body temperature,Critical Stage Covid-19; day 9,day 9 evaluation patients three days normal body temperature.
same,R/R,Critical Stage Covid-19; [12],18
same,SpO2,Critical Stage Covid-19; [12],97%
same,body temperature,Critical Stage Covid-19; [12],36.8 °C
same,Time after start of treatment at which improvement of R/R and SpO2 was measured,Critical Stage Covid-19; drip infusion once daily,6 h
same,Duration of immediate effect,[2]; intravenous administration,7 to 14 days
same,Time phenol may remain in the body,[2]; intravenous administration,about 24 hours
same,Duration of immediate effect,[2]; subcutaneous injection,about 7 days
same,Time phenol may remain in the body,[2]; subcutaneous injection,about 24 hours
same,X-lung: pneumonia,MRSA Lung Infection; Day 18th,almost recovered
same,"Fever (temperature), reduced from 38.0",MRSA Lung Infection; after 0.02% phenol 30 ml infusion once per day for 3 days,37.4 °C
same,Temperature,"MRSA Lung Infection; during 0.02% phenol 15 ml, 10 minutes, for 5 more days",under 37 °C
same,Breathing,Flu Pneumonia,breaths quietly
same,Patient outcome,Flu Pneumonia,physical recovered with some cough
same,X-lung infiltrate,Flu Pneumonia,much improved
same,Fever (temperature),Flu Pneumonia; iv,36.8-37.5 °C
same,Heartbeat,Flu Pneumonia; iv,about 90 per minute
same,Temperature,Early Stage CoViD-19; [13],38.4 °C
same,Temperature,Early Stage CoViD-19; Day 2,37.2 °C
same,Temperature,Early Stage CoViD-19; Day 3,36.8 °C
same,Temperature,Early Stage CoViD-19; Day 4,normal
same,Temperature,Early Stage CoViD-19; Day 5,normal
same,Duration of slight headache after treatment,Early Stage CoViD-19; after first treatment,about four
same,Time the slight cough remained,"Early Stage CoViD-19; counted from Day 5, then fully gone",5 days
same,Side effects,Early Stage CoViD-19; four consecutive days of s.c. injections,No other side effects noted
same,Injection location reaction,Early Stage CoViD-19; s.c. injection,slight pain at injection
same,Side effects after injection,Virus Induced Pneumonia; 9 consecutive days of s.c. injections,"slight headache, no other side effect after injection"
same,Temperature,Virus Induced Pneumonia; [13],38.1 °C
same,Short breath,Virus Induced Pneumonia; Day 2,Limited feeling of short breath and asthma
same,Temperature,"Virus Induced Pneumonia; Day 2, four s.c. injections 0.06 w/w % phenol daily",37.6 °C
same,Short breath,Virus Induced Pneumonia; Day 3,Less short breath
same,Temperature,Virus Induced Pneumonia; Day 3,37.4 °C
same,Short breath,Virus Induced Pneumonia; Day 4,Short breath much better
same,Temperature,Virus Induced Pneumonia; Day 4,37.4 °C
same,Short breath,Virus Induced Pneumonia; Day 5,Short breath slightly better
same,Temperature,Virus Induced Pneumonia; Day 5,37.4 °C
same,Short breath,Virus Induced Pneumonia; Day 6,No more short breath
same,Temperature,Virus Induced Pneumonia; Day 6,37.0 °C
same,Breathing,Virus Induced Pneumonia; Day 7,Breathing normal
same,Fever,Virus Induced Pneumonia; Day 7,No fever
same,Fever,Virus Induced Pneumonia; Day 8,No fever
